Laboratory results from the METLIN SMRT retention time set (Domingo-Almenara et al. 2019).

Experiment: gradient 5% acetonitrile 3 min, to 50% in 2 min, to 85% in 15 min, held 3 min, 100 µL/min
Conditions: column: Zorbax Extend-C18 2.1 x 50 mm; eluents: water / acetonitrile, 0.1% formic acid
Summary of the method: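 Each retention time is based on an adduct peak selected computationally and verified by manual inspection. Measurements used HPLC–quadrupole time-of-flight mass spectrometry in positive and negative ionization mode on mixtures of ~100 pure standards. Chromatography ran on a Zorbax Extend-C18 column (2.1 × 50 mm, 1.8 μm) at 100 μL/min with water and acetonitrile, each containing 0.1% formic acid, and dead and dwell volumes of 40 μL and 900 μL.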

RP-LC retention time [s]	SMILES
911	Cc1ccccc1-c1nnc(COc2ccc(NC(=O)c3ccsc3)cc2)o1
1380	COc1ccc(OC)c(Nc2nc(N(C)C)nc3c2cnn3-c2ccccc2)c1
650	COc1ccc(-c2c(C(=O)Nc3ccc(OC)cc3OC)nc3ccccn23)cc1
614	CCCCN1CCN(C(=O)c2cc(CC)n3nc(-c4ccccn4)cc3n2)CC1
1280	CCOC(=O)c1csc(-n2nc(C(F)(F)F)cc2-c2ccc(OC)cc2)n1
1090	COc1ccc(-c2noc(Cc3nnc(-c4ccc(C)c(C)c4)o3)n2)cc1
855	CCc1ccc(CNC(=O)Cn2cnc3nc4c(cc3c2=O)CC(C)CC4)cc1 (configuration not stated)
986	O=C(COc1ccccc1F)N1CCC(Oc2nc3ccccc3s2)CC1
930	O=C(NCCc1ccco1)c1ccc2nc(CCc3ccccc3)oc2c1
804	Cc1ccc(NC(=O)C2CCN(C(=O)c3ncn4c3COC(c3ccc(F)cc3)C4)CC2)cc1 (configuration not stated)
804	Cc1ccccc1Nc1c(-c2ccc(Cl)cc2)nc2ccccn12
625	COc1ccc(-c2cc(C(=O)N3CCN(c4ccc(N5CCOCC5)nn4)CC3)[nH]n2)cc1
967	CCc1cc(=O)n(CC(=O)Nc2cc(OC)ccc2OC)c(N2CCOCC2)n1
645	CN(CCCNC(=O)C1c2ccccc2C(=O)N(C)C1c1cccs1)Cc1ccccc1 (configuration not stated)
864	CCCN1C(=O)c2cc(C(=O)NCCc3ccccc3)nn2CC1(C)C(=O)NC1CCCC1 (configuration not stated)
876	Cc1cnn(Cc2nc(-c3ccc(NC(=O)c4cc(C)on4)cc3)oc2C)c1
818	O=S(=O)(Cc1ccc(F)cc1)NCC1(c2ccccc2)CCOCC1
952	Cc1cc(C(F)F)n2nc(C(=O)Nc3ccc(C(C)C)cc3)nc2n1

RP-LC retention time [s]	SMILES
917	CN(C(=O)CN(Cc1ccc(Cl)cc1)S(=O)(=O)c1cccnc1)c1ccccc1
590	O=C(c1ccc2ccccc2n1)N1C[C@@H](CO)[C@H](c2ccccn2)C1
1090	Cc1ccc(-c2ccc3nn(Cc4nc(-c5ccc(F)c(Br)c5)no4)c(=O)n3n2)cc1
823	O=C(O)c1cnc(N2CCOCC2)nc1-c1ccc(Cl)cc1
906	COc1ccc(-c2ccnc3nc(Cc4ccc(F)cc4)nn23)c(F)c1
1140	CCc1cc(C(=O)Nc2ccc(F)cc2C)nc2ccnn12
1150	CCn1cc(-c2ccc(F)cc2)cc1C(=O)N1CCC(C)CC1
838	Cc1cc(N2CCN(C(=O)c3ccco3)CC2)n2nc(C)c(-c3ccc(Cl)cc3)c2n1
1000	CC(C)(C)c1noc(-c2cccnc2-n2cnc(C(=O)Nc3cccc(F)c3)c2)n1
804	CCOC(=O)c1cnn(-c2ccc(C(=O)NCc3ccco3)cn2)c1C
695	Cc1ccsc1C(=O)Nc1ccc(Cn2cncn2)cc1
947	CCOc1ccc2nc(C(=O)NCc3ccccc3Br)cn2n1
778	COc1ccc2nc(C(=O)NCc3cccc(F)c3)cn2n1
683	Cc1ccn2c(NC(=O)COc3ccccc3)c(-c3ccccc3)nc2c1
842	Cc1noc(C)c1-c1ccc(S(=O)(=O)NCc2ccco2)cc1
810	Cc1ccc(NC(=O)Cn2c(N3CCc4ccccc4C3)nc(C)cc2=O)cc1
1220	Cc1ccc(C)c(-c2coc(-c3ccc(NC(=O)NCc4ccccc4)cc3)n2)c1
695	Cc1cccc(S(=O)(=O)Nc2cc(-c3cn4cccc(C)c4n3)ccc2C)c1

Continued, compound first:

SMILES	RP-LC retention time [s]
CCOC(=O)c1c(C)oc2nc(C)nc(NCC3CCN(Cc4ccccc4F)CC3)c12	702
CC(Cc1ccco1)NC(=O)C(C)n1c2ccccc2c2cnn(C)c(=O)c21 (configuration not stated)	603
Cc1ccc(-c2cc3c4nnc(CCC(=O)NCCCOC(C)C)n4ccn3n2)cc1C	759
CS(=O)(=O)Nc1ccc(Cc2noc(-c3ccc4[nH]cc(CCN)c4c3)n2)cc1	686
Cc1ccc(C)c(Sc2cc(N3CCC(C(=O)NCCCOC(C)C)CC3)ncn2)c1	823
Cc1ccc(C(=O)N2C[C@@H](F)C[C@H]2C(=O)N2CCCCC2)c(C)c1	740
CCOC(=O)c1ccccc1NC(=O)CSc1cc(N2CCCC2)ncn1	914
Cc1oc(C2CCN(C(=O)NCc3cccc(F)c3)CC2)nc1C(=O)N1CCOCC1	903
Cn1c(-c2cccs2)nn(CCNC(=O)c2ccccc2SC(F)F)c1=O	677
CCc1ccccc1NC(=O)N1CCc2nc[nH]c2C1	575
CC(C)CC(=O)Nc1ccc(S(=O)(=O)N2CCC(c3ccncc3)CC2)cc1	616
O=C(Cc1csc(Nc2ccccc2)n1)NCCC1=CCCCC1	865
CN(C)c1ncncc1N1CCC(C(=O)NCC2CCCO2)CC1 (configuration not stated)	566
C[C@@H]1CN(C(=O)c2ccoc2)C[C@H]1c1nc(-c2ccncc2)no1	678
C[C@](O)(COc1ccc(C#N)cc1)C(=O)Nc1ccc(C#N)c(C(F)(F)F)c1	972
O=C(NCc1ccc(Cl)cc1)NCC1(CO)CC1	654

SMILES	RP-LC retention time [s]
CCn1nc(N2CCCC(NC(=O)C3(c4ccccc4)CCCC3)C2)ccc1=O (configuration not stated)	792
CC(C)C(=O)NCC12CCCC=C1NC(=O)CC2 (configuration not stated)	624
O=C(Cn1nc(C(=O)N2CCCC2)c2ccccc21)N1CCN(c2cccc(Cl)c2)CC1	942
O=C(c1cn(-c2cc(N3CCCCC3)ncn2)cn1)N1CCN(C(=O)c2ccco2)CC1	675
Cc1oc(-c2[nH]ncc2C(=O)N2CCCCC2)cc1S(=O)(=O)N1CCOCC1	654
O=C(NCc1csc(C2CCN(C(=O)c3cc(F)ccc3Cl)CC2)n1)C1CCC1	713
CN(CCCNC(=O)C1CCCN(c2nnc(-n3cccc3)s2)C1)C1CCCCC1 (configuration not stated)	653
CC(C)OCCCNC(=O)c1nnc(-c2ccc(S(=O)(=O)N3CCOCC3)cc2)o1	784
Cc1[nH]c(C(=O)N2CCC(CC(=O)NC3CCCC3)CC2)c(C)c1C(=O)OC(C)C	778
CCN(C(=O)c1cc2c(s1)N(CC1CC1)CCCC2)C(C)C	1260
CCOC(=O)c1c(C)[nH]c(C)c1S(=O)(=O)NCC(=O)N1CCN(c2ccccn2)CC1	599
Cn1nc(C(=O)Nc2ccc(S(N)(=O)=O)cc2)ccc1=O	582
CCOC(=O)c1ccc(NC(=O)Cn2nc3n(c2=O)CCCCC3)cc1	685
C=CCN(CC=C)S(=O)(=O)c1ccc(C(=O)Nc2nc3c(s2)CCc2ccccc2-3)cc1	1240
CCC(=O)N(C)CCc1noc(-c2ccc(C(=O)NCCN(C)C)cc2)n1	579
